Assay results: US20260014147A1, “STAT6 DEGRADERS” (Gilead Sciences, Inc., priority 2024, published 2026)

Target: T1, STAT6 (endogenous, HiBiT-tagged) in HeLa LgBiT clone 4.14 cells (Homo sapiens, UniProt P42226)
T1 construct: These cells express endogenous STAT6; host or cells: HeLa LgBiT clone 4.14
T1 sequence (P42226 1-847): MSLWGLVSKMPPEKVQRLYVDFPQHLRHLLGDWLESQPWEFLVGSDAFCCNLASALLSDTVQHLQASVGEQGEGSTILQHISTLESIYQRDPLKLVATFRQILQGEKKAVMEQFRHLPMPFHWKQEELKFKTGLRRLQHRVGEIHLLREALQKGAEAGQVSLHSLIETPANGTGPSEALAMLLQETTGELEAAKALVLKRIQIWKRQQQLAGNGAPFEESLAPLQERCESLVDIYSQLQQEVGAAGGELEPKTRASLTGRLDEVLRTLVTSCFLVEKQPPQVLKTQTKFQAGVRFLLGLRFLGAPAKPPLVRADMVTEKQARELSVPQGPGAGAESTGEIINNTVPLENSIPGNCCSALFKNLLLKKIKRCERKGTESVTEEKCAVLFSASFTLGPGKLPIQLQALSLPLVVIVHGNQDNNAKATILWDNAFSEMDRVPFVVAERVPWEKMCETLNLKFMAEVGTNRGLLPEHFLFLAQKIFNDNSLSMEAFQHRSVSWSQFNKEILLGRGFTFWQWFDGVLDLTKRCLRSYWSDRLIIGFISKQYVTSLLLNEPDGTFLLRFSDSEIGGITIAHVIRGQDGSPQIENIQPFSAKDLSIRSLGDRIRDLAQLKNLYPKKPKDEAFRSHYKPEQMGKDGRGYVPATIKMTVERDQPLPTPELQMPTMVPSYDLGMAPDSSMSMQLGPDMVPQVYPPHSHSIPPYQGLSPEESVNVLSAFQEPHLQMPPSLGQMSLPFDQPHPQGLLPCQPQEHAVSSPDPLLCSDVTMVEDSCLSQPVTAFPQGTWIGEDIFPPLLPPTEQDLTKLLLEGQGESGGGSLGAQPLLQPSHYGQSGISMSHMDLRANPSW
Test: STAT6 Degrader Assay (HiBiT based, HeLa LgBiT clone 4.14 cells, luminescence, DC50)
Assay type: cell-based
Conditions: DC50 provided for test compounds with >80% Emax, geometric mean, read-out: STAT6 degradation DC50
Protocol: This was a HiBit based assay. A HeLa cell line stably transfected with a small protein, LgBit (Large Bit) was obtained from Promega. These cells express endogenous STAT6. A small 11 amino acid gene sequence (HiBiT) was inserted in the STAT6 gene using CRISPR technology. Once STAT6 protein is expressed in the cells, the HiBiT sequence will bind the LgBit in the cells resulting in a functional NanoBiT protein, giving a luminescent tag to STAT6. Single cell clones were prepared and the clone 4.14 was selected for the assay based on that clone showing high luminescence, high STAT6 phosphorylation upon stimulation with IL-4, and inhibition of luminescence when cells were treated with STAT6 siRNA. HeLa LgBiT clone 4.14 cells were suspended in DMEM with 10% FCS, 1% Pen/Strep, Na-pyrovate and Hygromycin B, at a concentration of […]. 5000 cells were added pr well of a 384 well plate and 20 nL of compound was added by Echo® liquid handler. NN6394A (terfenadine, a toxic compound) was added to control wells at 50 µM concentration to establish the assay window. In these wells the cells are dead which equals 100% degradation of STAT6. After 4-24 h of incubation at 37° C. under 5% CO2/95% air, […] substrate (Nano-GLO®) was added to the wells and the plates were centrifuged and incubated for 0.5 h. The luminescence in the wells as a measure of non-degraded STAT6 was measured in a plate reader (BMG Pherastar FSX). The dose-response curves for Examples 2a2, 2t1, 2 h3, and 2r1 are shown below (where percent degradation is plotted vs. test compound concentration in M on a log-scale).

Structure (SMILES) | DC50 [nM]
C[C@@H](c1cc2c(-c3ccc4[nH]ncc4c3)ccnc2n1C)N1CCC(c2ccc(C(=O)N3CCC(CN4CCN(c5ccc(NC6CCC(=O)NC6=O)cc5F)CC4)CC3)cc2)CC1 (stereo partly drawn) [Example 2c17, 3-((4-(4-((1-(4-(1-((S)-1-(4-(1H-indazol-5-yl)-1-methyl-1H-pyrrolo[2,3-b]pyridin-2-yl)-ethyl)piperidin-4-yl)benzoyl)piperidin-4-yl)methyl)piperazin-1-yl)-3-fluorophenyl)amino)piperidine-2,6-dione] | 2.7
CNc1ccc(-c2ccnc3c2cc([C@H](C)N2CCC(c4ccc(C(=O)N5CCC(CN6CCN(c7ccc(NC8CCC(=O)NC8=O)c(F)n7)CC6)CC5)cc4)CC2)n3C)cn1 (stereo partly drawn) [Example 2n14, 3-((2-fluoro-6-(4-((1-(4-(1-((S)-1-(1-methyl-4-(6-(methylamino)pyridin-3-yl)-1H-pyrrolo[2,3-b]pyridin-2-yl)ethyl)piperidin-4-yl)benzoyl)piperidin-4-yl)methyl)piperazin-1-yl)pyridin-3-yl)amino)piperidine-2,6-dione] | 49
Cn1c(CN2CCC(c3ccc(C(=O)N4CCC(CN5CCC(N6CCC(c7ccc(NC8CCC(=O)NC8=O)cc7F)CC6)C(F)(F)C5)CC4)cc3)CC2)cc2c(-c3ccc4[nH]ncc4c3)ccnc21 (stereo not shown) [Example 2h1, 3-((4-(1′-((1-(4-(1-((4-(1H-indazol-5-yl)-1-methyl-1H-pyrrolo[2,3-b]pyridin-2-yl)methyl)-piperidin-4-yl)benzoyl)piperidin-4-yl)methyl)-3′, 3′-difluoro-[1,4′-bipiperidin]-4-yl)-3-fluorophenyl)-amino)piperidine-2,6-dione] | 66.3
COCc1nc2cc(-c3ccnc4c3cc(CN3CCC(c5ccc(C(=O)N6CCn7nc(CN8CCC(c9ccc(NC%10CCC(=O)NC%10=O)cc9F)C(F)(F)C8)cc7C6)cc5)CC3)n4C)ccc2[nH]1 (stereo not shown) [Example 2q12, 3-((4-(3,3-difluoro-1-((5-(4-(1-((4-(2-(methoxymethyl)-1H-benzo[d]imidazol-5-yl)-1-methyl-1H-pyrrolo[2,3-b]pyridin-2-yl)methyl)piperidin-4-yl)benzoyl)-4,5,6,7-tetrahydropyrazolo[1,5-a]pyrazin-2-yl)methyl)piperidin-4-yl)-3-fluorophenyl)amino)piperidine-2,6-dione] | 12.9

Same assay, conditions: Emax provided for test compounds with <80% Emax (and 2c15), geometric mean, read-out: STAT6 degradation Emax

Structure (SMILES) | Emax [%]
COCc1nc2cc(-c3ccnc4c3cc(CN3CCC(c5ccc(C(=O)N6CCC(CN7CCN(c8ccc(NC9CCC(=O)NC9=O)cc8F)CC7)CC6)cc5)CC3)n4C)ccc2[nH]1 (stereo not shown) [Example 2c4, 3-((3-fluoro-4-(4-((1-(4-(1-((4-(2-(methoxymethyl)-1H-benzo[d]imidazol-5-yl)-1-methyl-1H-pyrrolo[2,3-b]pyridin-2-yl)methyl)piperidin-4-yl)benzoyl)piperidin-4-yl)methyl)piperazin-1-yl)phenyl)-amino)piperidine-2,6-dione] | 70 to 80
Cn1c(CN2CCC(c3ccc(C(=O)N4CCC(CN5CCN(c6cccc(NC7CCC(=O)NC7=O)c6)CC5)CC4)cc3)CC2)cc2c(-c3ccc4[nH]ncc4c3)ccnc21 (stereo not shown) [Example 2l1, 3-((3-(4-((1-(4-(1-((4-(1H-indazol-5-yl)-1-methyl-1H-pyrrolo[2,3-b]pyridin-2-yl)methyl)-piperidin-4-yl)benzoyl)piperidin-4-yl)methyl)piperazin-1-yl)phenyl)amino)piperidine-2,6-dione] | 60 to 70
COCc1nc2cc(-c3ccnc4c3cc([C@H](C)N3CCC(c5ccc(C(=O)N6CCC(CN7CCN(c8ccc(NC9CCC(=O)NC9=O)cc8C#N)CC7)CC6)cc5)CC3)n4C)ccc2[nH]1 (stereo partly drawn) [Example 2i2, 5-((2,6-dioxopiperidin-3-yl)amino)-2-(4-((1-(4-(1-((S)-1-(4-(2-(methoxymethyl)-1H-benzo[d]-imidazol-5-yl)-1-methyl-1H-pyrrolo[2,3-b]pyridin-2-yl)ethyl)piperidin-4-yl)benzoyl)piperidin-4-yl)methyl)-piperazin-1-yl)benzonitrile] | 30 to 40
Cc1cc(C(=O)N2CCC(CN3CCN(c4ccc(NC5CCC(=O)NC5=O)cc4F)CC3)CC2)cc(C)c1C1=CCN(Cc2cc3c(-c4ccc(N)nc4)ccnc3n2C)CC1 (stereo not shown) [Example 2c15, 3-((4-(4-((1-(4-(1-((4-(6-aminopyridin-3-yl)-1-methyl-1H-pyrrolo[2,3-b]pyridin-2-yl)methyl)-1,2,3,6-tetrahydropyridin-4-yl)-3,5-dimethylbenzoyl)piperidin-4-yl)methyl)piperazin-1-yl)-3-fluorophenyl)amino)piperidine-2,6-dione] | 80 to 90
Cn1c(CN2CCC(c3ccc(C(=O)N4CCC(CN5CCN(c6nccc(NC7CCC(=O)NC7=O)n6)CC5)CC4)cc3)CC2)cc2c(-c3ccc4[nH]ncc4c3)ccnc21 (stereo not shown) [Example 2k2, 3-((2-(4-((1-(4-(1-((4-(1H-indazol-5-yl)-1-methyl-1H-pyrrolo[2,3-b]pyridin-2-yl)methyl)-piperidin-4-yl)benzoyl)piperidin-4-yl)methyl)piperazin-1-yl)pyrimidin-4-yl)amino)piperidine-2,6-dione] | 30 to 40
Cc1cc(C(=O)N2CCC(CN3CCN(c4ccc(NC5CCC(=O)NC5=O)cc4F)CC3)CC2)ccc1C1=CCN(Cc2cc3c(-c4ccc(N)nc4)ccnc3n2C)CC1 (stereo not shown) [Example 2c9, 3-((4-(4-((1-(4-(1-((4-(6-aminopyridin-3-yl)-1-methyl-1H-pyrrolo[2,3-b]pyridin-2-yl)methyl)-1,2,3,6-tetrahydropyridin-4-yl)-3-methylbenzoyl)piperidin-4-yl)methyl)piperazin-1-yl)-3-fluorophenyl)-amino)piperidine-2,6-dione] | 50 to 60
Cn1c(CN2CCC(c3ccc(C(=O)N4CCC(CN5CCN(c6ncc(NC7CCC(=O)NC7=O)cc6F)CC5)CC4)cc3)CC2)cc2c(-c3ccc(N)nc3)ccnc21 (stereo not shown) [Example 2n5, 3-((6-(4-((1-(4-(1-((4-(6-aminopyridin-3-yl)-1-methyl-1H-pyrrolo[2,3-b]pyridin-2-yl)methyl)-piperidin-4-yl)benzoyl)piperidin-4-yl)methyl)piperazin-1-yl)-5-fluoropyridin-3-yl)amino)piperidine-2,6-dione] | 60 to 70
COCc1nc2cc(-c3ccnc4c3cc([C@H](C)N3CCC(c5ccc(C(=O)N6CCC(CN7CCN(c8ccc(NC9CCC(=O)NC9=O)c(F)n8)CC7)CC6)cc5)CC3)n4C)ccc2[nH]1 (stereo partly drawn) [Example 2n11, 3-((2-fluoro-6-(4-((1-(4-(1-((S)-1-(4-(2-(methoxymethyl)-1H-benzo[d]-imidazol-5-yl)-1-methyl-1H-pyrrolo[2,3-b]pyridin-2-yl)ethyl)piperidin-4-yl)benzoyl)-piperidin-4-yl)methyl)piperazin-1-yl)pyridin-3-yl)amino)piperidine-2,6-dione] | 70 to 80
Cn1c(CN2CCN(c3ccc(C(=O)N4CCC(CN5CCN(c6ccc(NC7CCC(=O)NC7=O)cc6F)CC5)CC4)cc3)CC2)cc2c(-c3ccc(N)nc3)ccnc21 (stereo not shown) [Example 2c39, 3-((4-(4-((1-(4-(4-((4-(6-aminopyridin-3-yl)-1-methyl-1H-pyrrolo[2,3-b]pyridin-2-yl)methyl)piperazin-1-yl)benzoyl)piperidin-4-yl)methyl)piperazin-1-yl)-3-fluorophenyl)amino)piperidine-2,6-dione] | < 20
